According to patent US20220110916A1, “Antioxidant and Use Thereof” (Bioradical Research Institute Corp., priority 2019, published 2022):
One block for each molecule: values may come before it.

Key:
[1] = tested on: neutrophils isolated from the peripheral blood of healthy individuals; test: Superoxide production amount of PMA-stimulated neutrophils, CLA chemiluminescence; format: cell-based, human; details: 0-200 μmol/l or 0-5000 μmol/l; PMA 100 ng/ml; control being 100; FIG. 2
Description: For examining the reactive oxygen-eliminating effect of the antioxidant of the present invention, the superoxide produced by the neutrophils when the neutrophils isolated from the peripheral blood of healthy individuals were stimulated with PMA (phorbor-12-myristate-13-acetate) was used. The superoxide production amount was measured by chemiluminescence using CLA (2-methyl-6-pjenyl-3, 7-dihydroimidazo[1,2-a]pyrazine-3-one).
(§1) First, ED2AP, BisEp-C3, edaravone, BisEp-C1, or BisEp-C1 (H2) was added to a neutrophil of 4×10^5 cells per sample so as to achieve a predetermined concentration (0, 12.5, 25, 50, 100, or 200 μmol/l, or 0, 125, 250, 500, 1250, 2500, or 5000 μmol/l) with 5 μmol of CLA, and then the cell suspension was seeded in flat-bottomed 96-well plates. The volume of the suspension was 200 μl/well, and phenol red free Ca+, Mg+ HBSS was used as the solution. In addition, the neutrophil was stimulated by adding PMA so as to achieve a concentration of 100 ng/ml. After the stimulation, a plate reader (Envision 2104 Multilabel Reader, produced by Perkin Elmer Co., Ltd.) was used to measure the chemiluminescence value over time for 30 minutes with the PMA stimulation time being a reference. The measurement interval was 30 seconds. The sum of the chemiluminescence values obtained every 30 seconds for 30 minutes was taken as the superoxide production amount. In addition, as a control, the superoxide production amount was measured in the same manner except that each compound was not added. The relative value of the superoxide production amount when each compound was added was calculated with the superoxide production amount of the control being 100.

[2] = Water solubility noted at synthesis; format: physicochemical; details: crystal obtained in Example 1
Description: 3.58 g of 3-methyl-1-phenyl-5-pyrazolone (hereinafter, also referred to as “edaravone”), 2.59 g of malonaldehyde dianilide hydrochloride, and 20 ml of ethanol were added to a reactor and dissolved. To the obtained solution, 2.04 g of triethylamine and 0.4 ml of water were added and stirred for 1 hour at room temperature (about 25° C., hereinafter, the same applies). After the stirring, the resultant was further reacted for 1 hour at 50° C. After discharging the obtained reaction solution to 100 ml of 1N hydrochloric acid, the mixture was sufficiently stirred and the precipitate was filtered. The resulting cake was washed with water. The cake was added to 200 ml of an aqueous sodium hydroxide solution having a 1% by weight concentration and completely dissolved by heating with stirring. Next, the dissolved solution was stirred for 3 hours after cooling to room temperature. Then, the liquid containing the obtained precipitate was filtered, and then the cake was washed with water. […] Note that the melting point of ED2AP was 249° C., which was water-soluble.
3 ml of dimethylformamide was added to a reactor and the exterior of the reactor was cooled with ice water. 1.75 g of phosphorus oxychloride was slowly dropped into the reactor (Reaction Solution A). In another reactor, 1.78 g of edaravone was dissolved in 5 ml of dimethylformamide (Reaction Solution B). Under room temperature, the reaction solution B was slowly added to the reaction solution A, and the resulting mixture was allowed to react for 1 hour with the end of addition (Reaction Solution C) being a reference. In another reactor, 1.81 g of 3-methyl-1-phenyl-5-pyrazolone was added to 8 ml of chloroform and dissolved (Reaction Solution D). Under room temperature, the reaction solution C was slowly added to the reaction solution D, followed by stirring for 20 minutes and further stirring at 70° C. for 1 hour. To the resultant, 0.2 g of water was added and stirred for another 2 hours. The obtained reaction solution was discharged into 100 ml of water and extracted with a mixed solvent of toluene/ethyl acetate=1/1 (volume ratio). After condensation of the obtained extract, column purification was performed to obtain 2.92 g of yellow crystal of the compound of the formula (10) having the following physical properties.
1.00 g of edaravone, 0.72 g of paraformaldehyde, and 20 ml of formic acid were added to a reaction flask and stirred overnight for 20 hours at 70° C. The obtained reaction solution was discharged into 80 ml of water and extracted with a mixed solvent of toluene/ethyl acetate=1/1 (volume ratio). When the extract was condensed to about two-thirds, crystals were precipitated. Further, the resultant was cooled to room temperature, and sufficiently crystallized, and then filtered. The obtained cake was washed with toluene to obtain 0.88 g of pale yellow crystal of the compound of the formula (14) having the following physical properties.
In Example 1(1), synthesis was performed in the same manner as described above except that 3-methyl-1-ethyl-5-pyrazolone was used instead of edaravone to obtain red crystal of BisEp-C3 having the following physical properties. Note that BisEp-C3 was water-soluble.
In Example 1(2), synthesis was performed in the same manner as described above except that 3-methyl-1-ethyl-5-pyrazolone was used instead of edaravone to obtain yellow crystal of BisEp-C1 having the following physical properties. Note that BisEp-C1 was water-soluble.
In Example 1(3), synthesis was performed in the same manner as described above except that 3-methyl-1-ethyl-5-pyrazolone was used instead of edaravone, then the obtained reaction solution was condensed, and the resultant was subjected to column purification to obtain colorless crystal of BisEp-C1 (H2) having the following physical properties. Note that BisEp-C1 (H2) was water-soluble.

[3] = Storage stability in pH7.4-PBS or pure water at 37° C. protected from light, residual rate by HPLC; format: physicochemical; details: 200 μmol/l; for Residual rate (%) After 1 week / Residual rate (%) After 2 weeks: 37° C., protected from light; for Residual rate (%) Initial concentration: initial concentration (reference 100%)
Description: The storage stability of edaravone, EMPO, ED2AP, and BisEp-C3 of the following formula (A) were examined. Specifically, edaravone, EMPO, ED2AP, and BisEp-C3 were dissolved in pH7.4-PBS or pure water so as to have a final concentration of 200 μmol/l to prepare dissolved solutions of these compounds. When the compounds were difficult to be dissolved, they were dissolved in an ultrasonic cleaner with warm water at 40° C.
Under the measurement conditions for HPLC described below, the initial concentration was quantified, and then each solution was stored in an oven, which was protected from light, at 37° C., and quantified under the same measurement conditions after 1 week and 2 weeks, to determine residual rate (%) with the initial concentration (100%) being a reference.
Measurement conditions for HPLC
PDA detector (Format: SPD-M20A) HPLC Assay Conditions:
Column: Atlantis dC18 5 μm (250×4.6 mm I.D.; produced by Waters)
Column temperature: 45° C.
Detection method: UV (254 nm)
Eluate A: pH3 buffer solution (adjusted to pH3 by adding phosphoric acid to 0.05M KH2PO4 aqueous solution)/methanol=90/10

[4] = tested on: neutrophils isolated from the peripheral blood of healthy individuals; test: Superoxide production amount of PMA-stimulated neutrophils with PBS solutions stored for 10 days vs immediately after preparation; format: cell-based, human; details: PBS solution stored for 10 days vs immediately after preparation; 0, 6.25, 12.5, 25, 50, 100 or 20 μmol/l; FIG. 4
Description: as §1
PBS solutions of ED2AP, BisEp-C3, and edaravone were prepared in the same manner as in Example 2 and stored for 10 days. The superoxide production amount was calculated in the same manner as in Example 4 except that the PBS solution after storage was added instead of ED2AP, BisEp-C3, edaravone, BisEp-C1 or BisEp-C1 (H2) so as to achieve a predetermined concentration (0, 6.25, 12.5, 25, 50, 100 or 20 μmol/l) of ED2AP, BisEp-C3 or edaravone. Further, PBS solutions of ED2AP, BisEp-C3, and edaravone were prepared in the same manner as in Example 2, and the superoxide production amount was calculated in the same manner except that the PBS solution immediately after preparation was used. Then, the relative value of the superoxide production amount of each sample was calculated with the superoxide production amount of the sample of 0 μmol/l being 100.

[5] = tested on: rat neuroid cells B50; test: Alleviation of singlet oxygen (Rose Bengal + G-LED) cytotoxicity, Alamar Blue fluorescence; format: cell-based; details: 200 nmol/l RB + G-LED 5 minutes
Description: Edaravone, ED2AP and BisEp-C3 were examined whether they had the function of alleviating neuronopathy. Specifically, singlet oxygen was generated by combining Rose Bengal (RB), which is a sensitizer, with green light (G-LED), and the function of alleviating the cytotoxicity of the generated singlet oxygen was examined with the cellular activity being an indicator.
First, rat neuroid cells B50 were cultured in 12-well dishes at 2×10^5 cells/well (medium: RPMI-1640 medium containing 5% FCS) overnight. After the culturing, the medium of each well was replaced with HBSS (1000 μl/well; phenol red free Ca+, Mg+) containing 200 nmol/l RB and edaravone, ED2AP, or BisEp-C3 having a predetermined concentration (0, 12.5, 25, 50, or 100 μmol/l). The dish was then irradiated with G-LED for 5 minutes to generate singlet oxygen. Thereafter, the medium of each well was replaced with 1000 μl of HBSS and Alamar Blue was added. The dish was then allowed to react for about 2 hours in an incubator at 37° C. and 5% CO2. After the reaction, fluorescence intensity (excitation wavelength: λ-560 nm, fluorescence wavelength: λ-595 nm) was measured with a plate reader (infinite200, Tecan Trading AG). In this experimental system, the higher the cellular activity, the more Alamar Blue is taken up and the higher the fluorescence intensity. As a control, fluorescence intensity was measured in the same manner except that sodium azide (Azide, NaN3) was added instead of the compounds so as to achieve a concentration of 4 mmol/l. As a negative control (NC), fluorescence intensity was measured in the same manner except that RB was not added. The relative value of the fluorescence intensity in the sample to which each compound was added was calculated with the fluorescence intensity of the negative control being 100.

[6] = tested on: rat neuroid cells B50; test: Toxicity evaluation, cell viability by Alamar Blue after 24 hours; format: cell-based; details: 12.5, 25, 50, 100, or 200 μmol/l, FIG. 5
Description: Rat neuroid cells B50 were seeded in 12-well plates and then cultured. Edaravone (RC), ED2AP, or BisEp-C3 was added to each well so as to achieve a predetermined concentration (12.5, 25, 50, 100, or 200 μmol/l), and then incubated for 24 hours at 37° C. and 5% CO2. Cell viability in each well after the culture was measured using Alamar Blue.

[7] = tested on: rat neuroid cells B50; test: Toxicity evaluation on byproducts after reaction with singlet oxygen, cell viability; format: cell-based; details: 50, 100, or 200 μmol/l reacted with RB + G-LED 525 nm in cell-free system; FIG. 6
Description: In a cell-free system, the RB was added to media (50% FCS-containing RPMI-1640 media) containing edaravone, ED2AP, and BisEp-C3 having a predetermined concentration (50, 100, or 200 μmol/l) and then irradiated with LED (G-LED) at 525 nm to generate singlet oxygen, whereby reacting each compound with singlet oxygen. The cell viability was measured in the same manner as in Example 7(1), except that the culture solution after the reaction was used as a medium of the neuroid cell B50. As a negative control (NC), the cell viability was measured in the same manner except that each compound and […] were not added in the cell-free system. Further, as a control (RB), the cell viability was measured in the same manner except that each compound was not added and only […] was added in the cell-free system.

solubility in water [2]: water-soluble
Structure (SMILES): CCn1nc(C)c(Cc2c(C)nn(CC)c2O)c1O [BisEp-C1 (H2), 4,4′-methylenebis[1-ethyl-3-methyl-1H-pyrazol-5-ol]]
relative value of the superoxide production amount [1]: suppressed the superoxide production amount in a concentration-dependent manner

solubility in water [2]: water-soluble
Structure (SMILES): CCN1N=C(C)/C(=C/c2c(C)nn(CC)c2O)C1=O [BisEp-C1]
relative value of the superoxide production amount [1]: suppressed the superoxide production amount in a concentration-dependent manner

Residual rate (%) After 1 week ([3]; Pure water): 6.3%
Residual rate (%) After 2 weeks ([3]; Pure water): 1.4%
Residual rate (%) Initial concentration ([3]; Pure water): 100%
Residual rate (%) After 1 week ([3]; pH 7.4-PBS): 0.0%
Residual rate (%) After 2 weeks ([3]; pH 7.4-PBS): 0.0%
Residual rate (%) Initial concentration ([3]; pH 7.4-PBS): 100%
Structure (SMILES): CCN1N=C(C)CC1=O [EMPO, reference compound]

Residual rate (%) After 1 week ([3]; Pure water): 82.8%
Residual rate (%) After 2 weeks ([3]; Pure water): 80.4%
Residual rate (%) Initial concentration ([3]; Pure water): 100%
Residual rate (%) After 1 week ([3]; pH 7.4-PBS): 31.2%
Residual rate (%) After 2 weeks ([3]; pH 7.4-PBS): 0.2%
Residual rate (%) Initial concentration ([3]; pH 7.4-PBS): 100%
Structure (SMILES): CC1=NN(c2ccccc2)C(=O)C1 [Edaravone, 5-methyl-2-phenyl-2,4-dihydro-3H-pyrazol-3-one, reference compound]
superoxide-eliminating ability after storage [4]: remarkably lowered after storage for 10 days
relative value of the superoxide production amount [1]: suppressed the superoxide production amount in a concentration-dependent manner
recovery of the fluorescence intensity (cellular activity) ([5]; 0, 12.5, 25, 50, or 100 μmol/l, FIG. 3): not recovered
cytotoxicity (cell viability) [6]: not cytotoxic at any concentration
cytotoxicity of the byproducts after reaction with singlet oxygen (cell viability) [7]: not cytotoxic at any concentration

solubility in water [2]: poorly soluble in water
Structure (SMILES): CC1=NN(c2ccccc2)C(=O)/C1=C\c1c(C)nn(-c2ccccc2)c1O [formula (10), 2,4-dihydro-4-[(5-hydroxy-3-methyl-1-phenyl-1H-pyrazol-4-yl)methylene]-5-methyl-2-phenyl-3H-pyrazol-3-one]

solubility in water [2]: poorly soluble in water
Structure (SMILES): Cc1nn(-c2ccccc2)c(O)c1Cc1c(C)nn(-c2ccccc2)c1O [formula (14), 4,4′-methylenebis[3-methyl-1-phenyl-1H-pyrazol-5-ol]]

Structure (SMILES): [N-]=[N+]=[N-] [sodium azide, reference compound]
relative value of the fluorescence intensity ([5]; 4 mmol/l, negative control being 100, RB control 33.17): 80.81
